Source: patent publication US20220235029A1, “CRYSTAL FORM OF C-MET/AXL INHIBITOR” (MEDSHINE DISCOVERY INC., priority 2019, published 2022)

Experiments:
[1] = Study on the hygroscopicity (DVS detection); assay type: physicochemical; settings: 25° C./80% RH
Description: Dynamic Vapor Sorption (DVS) Instrument in the Present Disclosure
Instrument model: DVS Advantage-1 (SMS)
Detection condition: about 10-15 mg of the sample was used for DVS detection.
Equilibrium: dm/dt=0.01%/min: (time: 10 min, longest: 180 min)
RH (%) gradient for testing: 10%
RH (%) gradient range for testing: 0%-90%-0%
The hygroscopicity was evaluated using the judgment criterias in the following Table 6: […]

[2] = tested on: MKN45 gastric cancer cell line; experiment: Cell proliferation inhibition experiment (CellTiter-Glo); assay type: cell-based
Description: Reagents and Consumables:
The cell plates were incubated in a carbon dioxide incubator for 3 days.

[3] = tested on: human Hs746t gastric cancer cell xenograft tumor model; experiment: In vivo pharmacodynamic study, Hs746t gastric cancer cell xenograft tumor model; set-up: species or system BALB/c nude mice; settings: for Tumor volume (mm^3) (20th day): average value ± SEM, Hs746t xenograft in BALB/c nude mice; for T/C (%) / TGI (%): calculated based on the tumor volume on the 21st day after administration
Description: Human gastric cancer HS 746T cells were cultured in a single layer in vitro. The culturing condition was DMEM medium supplemented with 10% fetal bovine serum, 100 U/mL penicillin and […] in 37° C., 5% CO2 incubator. Digestion and passage treatment with trypsin-EDTA was carried out twice a week. When the cell saturation was 80%-90% and the number reached the required level, the cells were collected, counted and seeded.
BALB/c nude mice, male. 6-8 weeks old, weighting 18-22 g.
0.2 mL (2×10^6, cells:Matrigel=1:1) HS 746T cells were inoculated subcutaneously on the right back of each mouse. The drug was administered in groups when the average tumor volume reached approximately 100-150 mm^3.
Experimental index: The experimental index was whether the tumor growth was inhibited, delayed or cured. The diameters of the tumor were measured twice a week using a vernier caliper. The formula for calculating the tumor volume is V=0.5a×b^2, a and b represent the long and short diameters of the tumor respectively. The antitumor effect (TGI) of the compound was evaluated by T-C (days) and T/C (%).

Row | SMILES | Classification of hygroscopicity [1] | Hygroscopic weight gain at 25/80% RH [1] [%] | inhibitory activity on MKN45 cell (in words) [2] | Tumor volume (mm^3) (20th day) [3] | T/C (%) [3] [%] | TGI (%) [3] [%] | tumor inhibitory effect (in words) ([3]; Hs746t gastric cancer cell xenograft tumor model)
1 | CN(C)C(=O)Nc1cc(Oc2ccc(NC(=O)c3cn(CC4CC4)c(=O)n(-c4ccc(F)cc4)c3=O)cc2F)ccn1 | slightly hygroscopic | 0.2801 | good inhibitory activity | – | – | – | –
2 | CN(C)C(=O)Nc1cc(Oc2ccc(NC(=O)c3cn(CC4CC4)c(=O)n(-c4ccc(F)cc4)c3=O)cc2F)ccn1.Cc1ccc(S(=O)(=O)O)cc1 | slightly hygroscopic | 0.999 | – | – | – | – | –
3 | CCOc1ccn(-c2ccc(F)cc2)c(=O)c1C(=O)Nc1ccc(Oc2ccnc(N)c2Cl)c(F)c1 [BMS777607] | – | – | – | 1872 ± 355 | 27.61 | 73.58 | –
4 | CN(C)C(=O)Nc1cc(Oc2ccc(NC(=O)c3cn(CC4CC4)c(=O)n(-c4ccc(F)cc4)c3=O)cc2F)ccn1 [Compound represented by formula (I)] | – | – | – | 4 ± 2 | 104.82 | 0.15 | better tumor inhibitory effect than BMS777607 and LY2801653
5 | Cc1ccc(C(=O)Nc2ccc(Oc3cc4cnn(C)c4cc3-c3cn[nH]c3)c(F)c2)c(=O)n1-c1ccc(F)cc1 [LY2801653] | – | – | – | 88 ± 13 | 101.62 | 3.45 | –
